In ChEMBL document CHEMBL3132769, “Fragment growing to retain or alter the selectivity of anchored kinase hinge-binding fragments” (Medchemcomm, 2014):

What was measured:
[1] = molecular target: T1, Serine/threonine-protein kinase Nek2 (Homo sapiens) (UniProt P51955); assay: Inhibition of human full length NEK2 expressed in baculovirus assessed as substrate phosphorylation using fluorescence-labelled peptides as substrate at 0.2 uM after 90 mins by microfluidic peptide phosphorylation assay
T1 sequence (whole entry): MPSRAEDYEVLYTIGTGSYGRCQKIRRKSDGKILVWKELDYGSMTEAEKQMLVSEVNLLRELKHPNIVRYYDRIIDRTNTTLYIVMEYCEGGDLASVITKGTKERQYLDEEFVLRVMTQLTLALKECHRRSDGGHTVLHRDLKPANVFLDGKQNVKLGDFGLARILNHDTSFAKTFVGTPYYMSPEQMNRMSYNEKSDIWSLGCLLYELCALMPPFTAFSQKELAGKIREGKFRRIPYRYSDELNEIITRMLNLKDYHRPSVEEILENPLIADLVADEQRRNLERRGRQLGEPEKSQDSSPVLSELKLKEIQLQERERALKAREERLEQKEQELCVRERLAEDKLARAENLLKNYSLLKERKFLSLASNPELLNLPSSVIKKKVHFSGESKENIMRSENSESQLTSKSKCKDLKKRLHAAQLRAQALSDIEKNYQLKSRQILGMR

[2] = molecular target: Cyclin-dependent kinase 2 (Homo sapiens) (UniProt P24941); assay: Inhibition of human full length CDK2 expressed in baculovirus assessed as substrate phosphorylation using fluorescence-labelled peptides as substrate at 0.2 uM after 90 mins by microfluidic peptide phosphorylation assay
[3] = molecular target: Tyrosine-protein kinase Fer (Homo sapiens) (UniProt P16591); assay: Inhibition of human FER catalytic domain expressed in baculovirus assessed as substrate phosphorylation using fluorescence-labelled peptides as substrate at 420 uM after 90 mins by microfluidic peptide phosphorylation assay
Tyrosine-protein kinase Fer (Homo sapiens), sequence (P16591 whole entry, looked up, the tested form may be a part): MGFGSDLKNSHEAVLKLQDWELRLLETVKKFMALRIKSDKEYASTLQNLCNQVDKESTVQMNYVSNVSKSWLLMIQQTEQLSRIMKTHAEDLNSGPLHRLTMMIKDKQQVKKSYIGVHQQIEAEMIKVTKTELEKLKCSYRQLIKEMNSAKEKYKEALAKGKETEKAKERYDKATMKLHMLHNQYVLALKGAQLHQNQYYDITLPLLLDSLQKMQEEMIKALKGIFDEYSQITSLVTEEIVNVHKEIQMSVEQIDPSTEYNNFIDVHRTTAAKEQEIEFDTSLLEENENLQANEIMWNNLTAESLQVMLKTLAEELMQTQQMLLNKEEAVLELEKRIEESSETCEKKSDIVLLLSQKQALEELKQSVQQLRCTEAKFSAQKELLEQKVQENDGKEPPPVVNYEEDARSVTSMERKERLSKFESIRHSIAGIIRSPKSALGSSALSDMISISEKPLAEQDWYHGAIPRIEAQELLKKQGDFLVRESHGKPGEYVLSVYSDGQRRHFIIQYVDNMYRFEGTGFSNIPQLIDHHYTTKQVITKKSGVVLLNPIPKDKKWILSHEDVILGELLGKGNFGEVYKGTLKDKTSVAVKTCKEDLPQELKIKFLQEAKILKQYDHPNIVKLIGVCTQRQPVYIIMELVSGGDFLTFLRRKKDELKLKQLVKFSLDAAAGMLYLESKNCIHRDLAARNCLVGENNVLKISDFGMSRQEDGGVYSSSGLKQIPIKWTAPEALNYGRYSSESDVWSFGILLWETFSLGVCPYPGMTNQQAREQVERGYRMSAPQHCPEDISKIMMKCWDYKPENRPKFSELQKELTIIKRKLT

[4] = molecular target: Serine/threonine-protein kinase MARK1 (Homo sapiens) (UniProt Q9P0L2); assay: Inhibition of human full length MARK1 expressed in baculovirus assessed as substrate phosphorylation using fluorescence-labelled peptides as substrate at 420 uM after 90 mins by microfluidic peptide phosphorylation assay
Serine/threonine-protein kinase MARK1 (Homo sapiens), sequence (Q9P0L2 whole entry, looked up): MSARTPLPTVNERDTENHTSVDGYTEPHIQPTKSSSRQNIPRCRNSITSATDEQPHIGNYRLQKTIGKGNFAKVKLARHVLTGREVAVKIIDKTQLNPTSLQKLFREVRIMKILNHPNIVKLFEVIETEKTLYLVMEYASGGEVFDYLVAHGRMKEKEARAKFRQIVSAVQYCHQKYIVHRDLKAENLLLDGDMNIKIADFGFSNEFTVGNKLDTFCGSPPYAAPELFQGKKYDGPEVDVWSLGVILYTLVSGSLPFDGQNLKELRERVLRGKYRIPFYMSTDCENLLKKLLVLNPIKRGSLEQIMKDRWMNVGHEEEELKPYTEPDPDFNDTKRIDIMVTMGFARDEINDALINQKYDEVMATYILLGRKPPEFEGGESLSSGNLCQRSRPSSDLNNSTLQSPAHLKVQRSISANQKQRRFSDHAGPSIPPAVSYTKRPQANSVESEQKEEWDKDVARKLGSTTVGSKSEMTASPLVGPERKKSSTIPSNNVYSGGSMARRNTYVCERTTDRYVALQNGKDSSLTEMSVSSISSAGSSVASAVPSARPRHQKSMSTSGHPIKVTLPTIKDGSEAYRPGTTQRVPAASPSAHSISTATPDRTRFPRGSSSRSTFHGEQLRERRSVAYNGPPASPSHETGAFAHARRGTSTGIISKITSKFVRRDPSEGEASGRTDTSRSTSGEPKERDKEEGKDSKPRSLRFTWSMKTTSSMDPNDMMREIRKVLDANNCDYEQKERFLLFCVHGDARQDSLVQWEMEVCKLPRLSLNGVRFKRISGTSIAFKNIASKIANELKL

[5] = molecular target: Tyrosine-protein kinase Lyn (Homo sapiens) (UniProt P07948); assay: Inhibition of human full length LYN expressed in baculovirus assessed as substrate phosphorylation using fluorescence-labelled peptides as substrate at 9 uM after 90 mins by microfluidic peptide phosphorylation assay
[6] = molecular target: Proto-oncogene tyrosine-protein kinase Src (Homo sapiens) (UniProt P12931); assay: Inhibition of human full length SRC expressed in baculovirus assessed as substrate phosphorylation using fluorescence-labelled peptides as substrate at 9 uM after 90 mins by microfluidic peptide phosphorylation assay
[7] = system: Tyrosine-protein kinase ABL1 (Homo sapiens), P00519 [H396P]; assay: Inhibition of human truncated ABL H396P mutant expressed in baculovirus assessed as substrate phosphorylation using fluorescence-labelled peptides as substrate at 2 uM after 90 mins by microfluidic peptide phosphorylation assay
[8] = molecular target: Calcium/calmodulin-dependent protein kinase type II subunit beta (Homo sapiens) (UniProt Q13554); assay: Inhibition of human CAMK2 beta catalytic domain expressed in baculovirus assessed as substrate phosphorylation using fluorescence-labelled peptides as substrate at 2 uM after 90 mins by microfluidic peptide phosphorylation assay
[9] = molecular target: Ribosomal protein S6 kinase alpha-4 (Homo sapiens) (UniProt O75676); assay: Inhibition of human full length MSK2 expressed in baculovirus assessed as substrate phosphorylation using fluorescence-labelled peptides as substrate at 2 uM after 90 mins by microfluidic peptide phosphorylation assay
[10] = molecular target: T1, Serine/threonine-protein kinase Nek2 (Homo sapiens); assay: Inhibition of human full length NEK2 expressed in baculovirus assessed as substrate phosphorylation using fluorescence-labelled peptides as substrate at […] after 90 mins by microfluidic peptide phosphorylation assay
[11] = molecular target: RAF proto-oncogene serine/threonine-protein kinase (Homo sapiens) (UniProt P04049); assay: Inhibition of human truncated c-Raf expressed in baculovirus assessed as substrate phosphorylation using fluorescence-labelled peptides as substrate at 0.06 uM after 90 mins by microfluidic peptide phosphorylation assay
RAF proto-oncogene serine/threonine-protein kinase (Homo sapiens), sequence (P04049 whole entry, the tested form may be a part): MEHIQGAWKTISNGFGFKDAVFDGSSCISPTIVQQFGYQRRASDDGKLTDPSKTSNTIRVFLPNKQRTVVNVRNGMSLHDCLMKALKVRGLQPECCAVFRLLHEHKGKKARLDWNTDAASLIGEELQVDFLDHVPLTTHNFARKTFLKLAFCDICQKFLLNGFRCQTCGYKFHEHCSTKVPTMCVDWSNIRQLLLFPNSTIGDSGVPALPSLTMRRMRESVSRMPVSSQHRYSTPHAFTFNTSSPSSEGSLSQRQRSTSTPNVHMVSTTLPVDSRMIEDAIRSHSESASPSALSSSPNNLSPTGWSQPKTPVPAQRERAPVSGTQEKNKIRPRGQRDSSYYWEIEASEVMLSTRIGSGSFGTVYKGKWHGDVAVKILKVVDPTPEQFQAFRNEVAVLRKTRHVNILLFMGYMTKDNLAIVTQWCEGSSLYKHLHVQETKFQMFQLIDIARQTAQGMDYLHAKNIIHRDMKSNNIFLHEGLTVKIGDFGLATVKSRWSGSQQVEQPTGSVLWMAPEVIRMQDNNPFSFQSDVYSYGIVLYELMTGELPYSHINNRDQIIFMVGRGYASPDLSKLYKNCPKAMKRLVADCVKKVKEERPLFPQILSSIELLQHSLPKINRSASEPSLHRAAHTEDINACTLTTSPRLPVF

[12] = molecular target: Tyrosine-protein kinase Fyn (Homo sapiens) (UniProt P06241); assay: Inhibition of human full length FYN expressed in baculovirus assessed as substrate phosphorylation using fluorescence-labelled peptides as substrate at 0.06 uM after 90 mins by microfluidic peptide phosphorylation assay
[13] = molecular target: T1, Serine/threonine-protein kinase Nek2 (Homo sapiens); assay: Inhibition of human full length NEK2 expressed in baculovirus assessed as substrate phosphorylation using fluorescence-labelled peptides as substrate at 0.06 uM after 90 mins by microfluidic peptide phosphorylation assay
[14] = molecular target: T2, Cytoplasmic tyrosine-protein kinase BMX (Homo sapiens) (UniProt P51813); assay: Inhibition of human full length BMX expressed in baculovirus assessed as substrate phosphorylation using fluorescence-labelled peptides as substrate at 8 uM after 90 mins by microfluidic peptide phosphorylation assay
T2 sequence (whole entry): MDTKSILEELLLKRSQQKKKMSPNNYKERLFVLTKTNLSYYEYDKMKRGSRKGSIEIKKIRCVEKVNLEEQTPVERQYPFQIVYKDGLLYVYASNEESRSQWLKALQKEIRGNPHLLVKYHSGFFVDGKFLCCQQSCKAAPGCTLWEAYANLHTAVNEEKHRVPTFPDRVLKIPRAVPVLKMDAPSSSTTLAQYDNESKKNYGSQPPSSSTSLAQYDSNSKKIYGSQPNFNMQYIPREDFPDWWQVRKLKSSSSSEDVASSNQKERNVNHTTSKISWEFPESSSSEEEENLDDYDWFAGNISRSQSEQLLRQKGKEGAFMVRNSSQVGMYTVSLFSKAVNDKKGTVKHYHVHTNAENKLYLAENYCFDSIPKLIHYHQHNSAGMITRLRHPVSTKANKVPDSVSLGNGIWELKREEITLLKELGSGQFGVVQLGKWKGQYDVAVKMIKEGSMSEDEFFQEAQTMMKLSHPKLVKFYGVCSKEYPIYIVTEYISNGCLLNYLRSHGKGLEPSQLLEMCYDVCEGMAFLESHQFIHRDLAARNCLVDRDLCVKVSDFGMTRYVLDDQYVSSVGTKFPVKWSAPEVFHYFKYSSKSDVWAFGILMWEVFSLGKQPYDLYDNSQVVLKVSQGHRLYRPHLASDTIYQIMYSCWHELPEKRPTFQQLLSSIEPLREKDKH

[15] = molecular target: Rho-associated protein kinase 2 (Homo sapiens) (UniProt O75116); assay: Inhibition of human ROCK2 catalytic domain expressed in baculovirus assessed as substrate phosphorylation using fluorescence-labelled peptides as substrate at 70 uM after 90 mins by microfluidic peptide phosphorylation assay
Rho-associated protein kinase 2 (Homo sapiens), sequence (O75116 whole entry, looked up, the tested form may be a part): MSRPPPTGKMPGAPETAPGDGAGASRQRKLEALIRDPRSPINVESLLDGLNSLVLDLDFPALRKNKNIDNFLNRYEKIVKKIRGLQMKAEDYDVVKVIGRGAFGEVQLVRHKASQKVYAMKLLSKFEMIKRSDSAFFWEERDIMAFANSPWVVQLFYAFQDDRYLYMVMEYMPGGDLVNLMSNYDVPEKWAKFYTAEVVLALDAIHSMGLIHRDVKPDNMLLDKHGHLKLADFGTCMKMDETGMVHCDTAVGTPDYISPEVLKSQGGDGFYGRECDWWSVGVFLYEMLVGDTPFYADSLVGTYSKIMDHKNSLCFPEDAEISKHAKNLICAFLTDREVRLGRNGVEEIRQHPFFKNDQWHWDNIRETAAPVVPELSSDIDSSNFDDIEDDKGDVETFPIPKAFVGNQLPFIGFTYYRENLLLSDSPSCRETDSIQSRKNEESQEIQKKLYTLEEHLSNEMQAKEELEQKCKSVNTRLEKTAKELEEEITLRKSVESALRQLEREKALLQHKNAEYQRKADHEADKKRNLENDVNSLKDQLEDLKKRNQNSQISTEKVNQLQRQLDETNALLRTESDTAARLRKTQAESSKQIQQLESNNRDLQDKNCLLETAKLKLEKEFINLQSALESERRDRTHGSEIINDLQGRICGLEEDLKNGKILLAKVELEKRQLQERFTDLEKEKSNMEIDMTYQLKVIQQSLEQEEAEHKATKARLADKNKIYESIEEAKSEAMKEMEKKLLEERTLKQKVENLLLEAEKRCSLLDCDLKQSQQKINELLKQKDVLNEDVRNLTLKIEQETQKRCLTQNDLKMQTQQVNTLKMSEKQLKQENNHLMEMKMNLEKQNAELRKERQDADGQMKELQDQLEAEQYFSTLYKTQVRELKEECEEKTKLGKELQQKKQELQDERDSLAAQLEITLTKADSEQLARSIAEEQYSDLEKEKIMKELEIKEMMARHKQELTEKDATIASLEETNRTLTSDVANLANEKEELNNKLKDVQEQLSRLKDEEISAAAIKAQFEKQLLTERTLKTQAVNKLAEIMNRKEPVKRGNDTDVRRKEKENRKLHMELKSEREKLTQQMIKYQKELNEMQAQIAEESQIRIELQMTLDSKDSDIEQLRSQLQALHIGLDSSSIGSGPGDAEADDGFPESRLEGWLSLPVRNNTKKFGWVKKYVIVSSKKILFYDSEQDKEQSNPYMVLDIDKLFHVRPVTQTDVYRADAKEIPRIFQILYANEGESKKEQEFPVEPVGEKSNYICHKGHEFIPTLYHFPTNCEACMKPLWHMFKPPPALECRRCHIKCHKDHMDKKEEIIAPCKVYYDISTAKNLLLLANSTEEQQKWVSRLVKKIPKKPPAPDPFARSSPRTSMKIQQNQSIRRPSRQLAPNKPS

[16] = molecular target: Tyrosine-protein kinase Fer (Homo sapiens) (UniProt P16591); assay: Inhibition of human FER catalytic domain expressed in baculovirus assessed as substrate phosphorylation using fluorescence-labelled peptides as substrate at 70 uM after 90 mins by microfluidic peptide phosphorylation assay
[17] = molecular target: Receptor-type tyrosine-protein kinase FLT3 (Homo sapiens) (UniProt P36888); assay: Inhibition of human FLT3 catalytic domain expressed in baculovirus assessed as substrate phosphorylation using fluorescence-labelled peptides as substrate at 70 uM after 90 mins by microfluidic peptide phosphorylation assay
Receptor-type tyrosine-protein kinase FLT3 (Homo sapiens), sequence (P36888 whole entry, the tested form may be a part): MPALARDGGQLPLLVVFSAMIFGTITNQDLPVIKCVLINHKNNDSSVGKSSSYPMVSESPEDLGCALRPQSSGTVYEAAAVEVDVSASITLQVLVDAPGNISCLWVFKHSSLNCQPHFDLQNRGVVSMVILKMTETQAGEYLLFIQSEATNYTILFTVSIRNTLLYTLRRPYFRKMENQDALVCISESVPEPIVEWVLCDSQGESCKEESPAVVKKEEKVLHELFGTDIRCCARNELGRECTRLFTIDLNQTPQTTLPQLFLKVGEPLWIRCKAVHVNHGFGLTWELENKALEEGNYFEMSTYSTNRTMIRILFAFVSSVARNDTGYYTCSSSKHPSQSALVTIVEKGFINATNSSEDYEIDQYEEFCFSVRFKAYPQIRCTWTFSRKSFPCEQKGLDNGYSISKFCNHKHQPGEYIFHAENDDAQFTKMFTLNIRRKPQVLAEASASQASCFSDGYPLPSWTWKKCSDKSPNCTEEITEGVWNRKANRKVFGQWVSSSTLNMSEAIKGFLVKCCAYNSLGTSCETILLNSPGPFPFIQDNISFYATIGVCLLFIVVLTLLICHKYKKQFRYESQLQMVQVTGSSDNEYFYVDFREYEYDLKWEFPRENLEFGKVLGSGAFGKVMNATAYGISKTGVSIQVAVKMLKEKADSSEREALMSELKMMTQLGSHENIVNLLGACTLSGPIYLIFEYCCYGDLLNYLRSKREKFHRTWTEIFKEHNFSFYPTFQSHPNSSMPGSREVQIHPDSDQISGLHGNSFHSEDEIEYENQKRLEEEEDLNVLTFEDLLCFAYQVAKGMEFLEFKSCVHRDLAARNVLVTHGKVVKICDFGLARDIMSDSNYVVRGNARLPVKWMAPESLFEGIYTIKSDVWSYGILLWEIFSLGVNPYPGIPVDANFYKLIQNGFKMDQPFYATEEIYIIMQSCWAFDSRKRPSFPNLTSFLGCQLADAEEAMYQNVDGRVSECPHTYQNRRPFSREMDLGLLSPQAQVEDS

[18] = molecular target: Serine/threonine-protein kinase MARK1 (Homo sapiens) (UniProt Q9P0L2); assay: Inhibition of human full length MARK1 expressed in baculovirus assessed as substrate phosphorylation using fluorescence-labelled peptides as substrate at 1000 uM after 90 mins by microfluidic peptide phosphorylation assay

SMILES: Clc1ccc(C2(c3ccc(-c4ncnc5[nH]cnc45)cc3)CCNCC2)cc1
- inhibition [1]: 4.5%
- inhibition [2]: 7.5%

SMILES: c1nc(N2CCOCC2)c2nc[nH]c2n1
- inhibition [3]: 70.5%
- inhibition [4]: 4.5%

SMILES: NCC1CN(c2ncnc3[nH]c4cnccc4c23)CCO1 (stereo not drawn)
- inhibition [5]: 42%
- inhibition [6]: 19.5%

SMILES: NC1CCN(c2ncnc3[nH]ccc23)CC1
- inhibition [7]: 2.5%
- inhibition [8]: 25.5%
- inhibition [9]: 15%

SMILES: COC(=O)c1cnc(Nc2cnc(C#N)cn2)cc1NCC1CCNCC1
- inhibition [10]: 0.5%

SMILES: NC1(Cc2ccc(Cl)cc2)CCN(c2ncnc3[nH]ccc23)CC1
- inhibition [11]: 3.5%
- inhibition [12]: 3%
- inhibition [13]: 0%

SMILES: NCC1CCN(c2ncnc3[nH]ccc23)CC1
- inhibition [14]: 42.5%

SMILES: CNCc1ccc(-c2ncnc3[nH]cnc23)cc1
- inhibition [15]: 88.5%
- inhibition [16]: 30%
- inhibition [17]: 36%

SMILES: c1cnc2[nH]ccc2c1
- inhibition [18]: 93.5%
